System: Transport facilitation protein genes
Assay: DNA chip mRNA expression in yeast, transport facilitation protein genes (Table 5)
Type: cell-based, Saccharomyces cerevisiae S288C
In short: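 Ratios compare mRNA levels in stressed and control S. cerevisiae. Each toxicant was applied for two hours to log-phase cultures at 25° C. at a sub-lethal, growth-inhibiting level; fluorescent cDNA (Cy3- or Cy5-dUTP) was hybridized to a genome-wide yeast chip for over 12 h at 65° C.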

N#Cc1c(Cl)c(Cl)c(Cl)c(C#N)c1Cl [(9), 2,4,5,6-tetrachloro-1,3-benzenedicarbonitrile]
The level of expressed mRNA in the presence of chemical substance/The level of expressed mRNA in the absence of chemical substance (yeast gene YGR260W): 0.3 | The level of expressed mRNA in the presence of chemical substance/The level of expressed mRNA in the absence of chemical substance (yeast gene YGR281W): 2.7 | The level of expressed mRNA in the presence of chemical substance/The level of expressed mRNA in the absence of chemical substance (yeast gene YHL035C): 0.6 | The level of expressed mRNA in the presence of chemical substance/The level of expressed mRNA in the absence of chemical substance (yeast gene YHL040C): 1.1 | The level of expressed mRNA in the presence of chemical substance/The level of expressed mRNA in the absence of chemical substance (yeast gene YHL047C): 1.2 | The level of expressed mRNA in the presence of chemical substance/The level of expressed mRNA in the absence of chemical substance (yeast gene YHR026W): 1.1 | The level of expressed mRNA in the presence of chemical substance/The level of expressed mRNA in the absence of chemical substance (yeast gene YHR092C): 0.2 | The level of expressed mRNA in the presence of chemical substance/The level of expressed mRNA in the absence of chemical substance (yeast gene YHR094C): 0.3 | The level of expressed mRNA in the presence of chemical substance/The level of expressed mRNA in the absence of chemical substance (yeast gene YHR175W): 0.6 | The level of expressed mRNA in the presence of chemical substance/The level of expressed mRNA in the absence of chemical substance (yeast gene YIL006W): 0.9 | The level of expressed mRNA in the presence of chemical substance/The level of expressed mRNA in the absence of chemical substance (yeast gene YIL022W): 1.1 | The level of expressed mRNA in the presence of chemical substance/The level of expressed mRNA in the absence of chemical substance (yeast gene YIL056W): 1.2 | The level of expressed mRNA in the presence of chemical substance/The level of expressed mRNA in the absence of chemical substance (yeast gene YIL088C): 1.0 | The level of expressed mRNA in the presence of chemical substance/The level of expressed mRNA in the absence of chemical substance (yeast gene YJL034W): 2.8 | The level of expressed mRNA in the presence of chemical substance/The level of expressed mRNA in the absence of chemical substance (yeast gene YJL212C): 1.1 | The level of expressed mRNA in the presence of chemical substance/The level of expressed mRNA in the absence of chemical substance (yeast gene YJL219W): 4.0 | The level of expressed mRNA in the presence of chemical substance/The level of expressed mRNA in the absence of chemical substance (yeast gene YJR077C): 0.4 | The level of expressed mRNA in the presence of chemical substance/The level of expressed mRNA in the absence of chemical substance (yeast gene YJR106W): 2.0 | The level of expressed mRNA in the presence of chemical substance/The level of expressed mRNA in the absence of chemical substance (yeast gene YJR121W): 0.8 | The level of expressed mRNA in the presence of chemical substance/The level of expressed mRNA in the absence of chemical substance (yeast gene YKL016C): 1.3 | The level of expressed mRNA in the presence of chemical substance/The level of expressed mRNA in the absence of chemical substance (yeast gene YKL146W): 4.6 | The level of expressed mRNA in the presence of chemical substance/The level of expressed mRNA in the absence of chemical substance (yeast gene YKR039W): 1.9 | The level of expressed mRNA in the presence of chemical substance/The level of expressed mRNA in the absence of chemical substance (yeast gene YKR067W): 1.6 | The level of expressed mRNA in the presence of chemical substance/The level of expressed mRNA in the absence of chemical substance (yeast gene YKR105C): 1.0 | The level of expressed mRNA in the presence of chemical substance/The level of expressed mRNA in the absence of chemical substance (yeast gene YLL028W): 1.2 | The level of expressed mRNA in the presence of chemical substance/The level of expressed mRNA in the absence of chemical substance (yeast gene YLR081W): 0.1 | The level of expressed mRNA in the presence of chemical substance/The level of expressed mRNA in the absence of chemical substance (yeast gene YLR295C): 1.4 | The level of expressed mRNA in the presence of chemical substance/The level of expressed mRNA in the absence of chemical substance (yeast gene YLR348C): 2.1 | The level of expressed mRNA in the presence of chemical substance/The level of expressed mRNA in the absence of chemical substance (yeast gene YLR378C): 1.1 | The level of expressed mRNA in the presence of chemical substance/The level of expressed mRNA in the absence of chemical substance (yeast gene YMR011W): 0.0 | The level of expressed mRNA in the presence of chemical substance/The level of expressed mRNA in the absence of chemical substance (yeast gene YMR162C): 0.7 | The level of expressed mRNA in the presence of chemical substance/The level of expressed mRNA in the absence of chemical substance (yeast gene YMR203W): 0.7 | The level of expressed mRNA in the presence of chemical substance/The level of expressed mRNA in the absence of chemical substance (yeast gene YNL055C): 1.1 | The level of expressed mRNA in the presence of chemical substance/The level of expressed mRNA in the absence of chemical substance (yeast gene YNL259C): 1.6 | The level of expressed mRNA in the presence of chemical substance/The level of expressed mRNA in the absence of chemical substance (yeast gene YNR072W): 0.7 | The level of expressed mRNA in the presence of chemical substance/The level of expressed mRNA in the absence of chemical substance (yeast gene YOL119C): 5.0 | The level of expressed mRNA in the presence of chemical substance/The level of expressed mRNA in the absence of chemical substance (yeast gene YOL156W): 2.3 | The level of expressed mRNA in the presence of chemical substance/The level of expressed mRNA in the absence of chemical substance (yeast gene YOL163W): 7.5 | The level of expressed mRNA in the presence of chemical substance/The level of expressed mRNA in the absence of chemical substance (yeast gene YOR035C): 1.3 | The level of expressed mRNA in the presence of chemical substance/The level of expressed mRNA in the absence of chemical substance (yeast gene YOR130C): 2.0 | The level of expressed mRNA in the presence of chemical substance/The level of expressed mRNA in the absence of chemical substance (yeast gene YOR153W): 3.2 | The level of expressed mRNA in the presence of chemical substance/The level of expressed mRNA in the absence of chemical substance (yeast gene YOR270C): 0.4 | The level of expressed mRNA in the presence of chemical substance/The level of expressed mRNA in the absence of chemical substance (yeast gene YOR273C): 0.6 | The level of expressed mRNA in the presence of chemical substance/The level of expressed mRNA in the absence of chemical substance (yeast gene YOR316C): 1.6 | The level of expressed mRNA in the presence of chemical substance/The level of expressed mRNA in the absence of chemical substance (yeast gene YOR332W): 1.8 | The level of expressed mRNA in the presence of chemical substance/The level of expressed mRNA in the absence of chemical substance (yeast gene YOR348C): 0.5 | The level of expressed mRNA in the presence of chemical substance/The level of expressed mRNA in the absence of chemical substance (yeast gene YPL036W): 0.1 | The level of expressed mRNA in the presence of chemical substance/The level of expressed mRNA in the absence of chemical substance (yeast gene YPL134C): 0.6 | The level of expressed mRNA in the presence of chemical substance/The level of expressed mRNA in the absence of chemical substance (yeast gene YPL265W): 0.2 | The level of expressed mRNA in the presence of chemical substance/The level of expressed mRNA in the absence of chemical substance (yeast gene YPL271W): 0.6 | The level of expressed mRNA in the presence of chemical substance/The level of expressed mRNA in the absence of chemical substance (yeast gene YPR192W): 0.7 | The level of expressed mRNA in the presence of chemical substance/The level of expressed mRNA in the absence of chemical substance (yeast gene YPR194C): 0.5
